Source: publication PMC11790949, “A multiplex method for rapidly identifying viral protease inhibitors” (Molecular Systems Biology, 2025)
Values joined by “and” are separate entries in the source; they are usually repeats but may differ in a detail not shown here. Identical values can stand only once.

Legend:
SARS-CoV-2 3CL protease [1] = target: T1, SARS-CoV-2 3CL protease (Severe acute respiratory syndrome coronavirus 2, UniProt P0DTD1); assay: Biochemical inhibition of peptide cleavage by purified SARS-CoV-2 3CL protease (fluorogenic)
SARS-CoV-2 3CL protease [2] = target: T1, SARS-CoV-2 3CL protease; assay: Mass spectrometry (MALDI-TOF) analysis of protein-inhibitor complex; format: binding; details: 50 μM protease, 500 μM inhibitor, 1 h at 4 °C
Procedure: For MALDI-TOF MS analysis, 1 µL of the protein-inhibitor complex (3CL protease only and 3CL protease-CB6778425) was mixed with 9 µL of 10 mg/mL sinapinic acid in the matrix solution (70:30 water/acetonitrile, with 0.1% TFA). About 1.0 µL of the final mix was deposited onto the target carrier and allowed to air dry. MALDI spectra of the protein-inhibitor complex were compared with ligand-free 3CL protease to determine the mass shift. MALDI spectra were collected with the software flexControl, while MALDI data were analyzed by flexAnalysis.

[3] = read-out: SARS-CoV-2 3CL Inhibition (%)

SMILES	IC50 (SARS-CoV-2 3CL protease [1]) [nM]	shift of IC50 upon pre-incubation with SARS-CoV-2 3CL (SARS-CoV-2 3CL protease [1])	inhibition at 0.0976563 µM (SARS-CoV-2 3CL protease [1]; [3]) [%]	inhibition at 0.19382 µM (SARS-CoV-2 3CL protease [1]; [3])	inhibition at 0.195313 µM (SARS-CoV-2 3CL protease [1]; [3]) [%]	inhibition at 0.390625 µM (SARS-CoV-2 3CL protease [1]; [3]) [%]	inhibition at 0.49485 µM (SARS-CoV-2 3CL protease [1]; [3]) [%]	inhibition at 0.78125 µM (SARS-CoV-2 3CL protease [1]; [3]) [%]	inhibition at 0.79588 µM (SARS-CoV-2 3CL protease [1]; [3]) [%]	inhibition at 1.09691 µM (SARS-CoV-2 3CL protease [1]; [3]) [%]	inhibition at 1.39794 µM (SARS-CoV-2 3CL protease [1]; [3]) [%]	inhibition at 1.69897 µM (SARS-CoV-2 3CL protease [1]; [3]) [%]	inhibition at 2 µM (SARS-CoV-2 3CL protease [1]; [3]) [%]	inhibition at 2.30103 µM (SARS-CoV-2 3CL protease [1]; [3]) [%]	mass shift in the protease-inhibitor complex (SARS-CoV-2 3CL protease [2])	inhibition at 0.000762939 µM (SARS-CoV-2 3CL protease [1]; [3]) [%]	inhibition at 0.00152588 µM (SARS-CoV-2 3CL protease [1]; [3]) [%]	inhibition at 0.0244141 µM (SARS-CoV-2 3CL protease [1]; [3]) [%]	inhibition at 0.0488281 µM (SARS-CoV-2 3CL protease [1]; [3]) [%]	inhibition at […] (SARS-CoV-2 3CL protease [1]; [3]) [%]
CCc1cc(=O)oc2cc(OC(=O)c3ccco3)ccc12 [CB6728297]	245	shifts to lower IC50s	9.07	94.7% and 89.2%	39.5	64.9	88.9	90.8	93.8	98.7	93.4	95.6	88.8	99.1						
O=C(Oc1ccc2ccc(=O)oc2c1)c1cccs1 [CB6762077]	1100	shifts to lower IC50s		71.8%		12.9	77.7	30.2	75.9	90.1	88.9	94.3	112							
O=C(Oc1ccc2ccc(=O)oc2c1)c1ccco1 [CB6778425]			62.7	104%	85.1	94.5	102	98.7	95	96.4	103	98	95	90.6	~ 95 Da	0.215	4.28	19.7	39.2	11.4
